# Patent US9688634B2, “Pest control agent” (priority 2012, dated 2017)
# System: brown rice planthopper
# Assay: whole plant or invertebrate
# Assay type: in vivo
# Conditions: Oryza sativa, 120 h, immersion treatment of rice seedlings, second- to third-instar nymphs, 5 days after release, 25° C.
row,SMILES,mortality at 200 ppm
1,"CC(C)(C)c1ccc(C#Cc2ccncc2Br)cc1 [Compound No. 10, 3-bromo-4-((4-(tert-butyl)phenyl)ethynyl)pyridine]",≥ 90%
2,"C=CCc1cnccc1C#Cc1ccc(C(C)(C)C)cc1 [Compound No. 17, 3-allyl-4-((4-tert-butylphenyl)ethynyl)pyridine]",≥ 90%
3,"COc1cnccc1C#Cc1ccc(C(C)(C)C)cc1 [Compound No. 21, 4-((4-(tert-butyl)phenyl)ethynyl)-3-methoxypyridine]",≥ 90%
4,"CSc1cnccc1C#Cc1ccc(C(C)(C)C)cc1 [Compound No. 26, 4-((4-(tert-butyl)phenyl)ethynyl)-3-(methylthio)pyridine]",≥ 90%
5,"CC(C)(C)c1ccc(C#Cc2ccncc2N)cc1 [Compound No. 30, 4-((4-(tert-butyl)phenyl)ethynyl)pyridine-3-amine]",≥ 90%
6,"CCCNc1cnccc1C#Cc1ccc(C(C)(C)C)cc1 [Compound No. 32, 4-((4-(tert-butyl)phenyl)ethynyl)-N-propylpyridine-3-amine]",≥ 90%
7,"CCNc1cnccc1C#Cc1ccc(C(C)(C)C)cc1 [Compound No. 112, 4-((4-tert-butylphenyl)ethynyl)-N-ethylpyridine-3-amine]",≥ 90%

# System: Haemaphysalis longicornis
# Assay: Test for Examining Effect on Haemaphysalis longicornis (Test Example 3)
# Assay type: in vivo
# Conditions: treated plastic vial, young mites, 24 hours after contact, 25° C., dark
# Protocol: Test for Examining Effect on Haemaphysalis longicornis
# A solution prepared so that the concentration of each Invention Compound therein was 100 ppm was used to treat a plastic vial. After the liquid chemical was air-dried, young mites were placed in the vial. This vial was allowed to stand under constant dark conditions at 25° C. and a relative humidity of 80-100%. At 24 hours after the contact with the chemical, the number of dead mites was recorded. The mortality (%) was determined using the following calculation formula. […] Mortality (%)=((number of dead ticks)/(number of all ticks))×100
row,SMILES,mortality at 100 ppm
1,"C=CCc1cnccc1C#Cc1ccc(C(C)(C)C)cc1 [Compound No. 17, 3-allyl-4-((4-tert-butylphenyl)ethynyl)pyridine]",≥ 90%
